Assay results published in PMC7142633, “Impact of B-Ring Substitution and Acylation with Hydroxy Cinnamic Acids on the Inhibition of Porcine α-Amylase by Anthocyanin-3-Glycosides” (Foods, 2020).
Where two headings read alike, the source gives them in different places. Marks after values point to notes of the source that are not given here.

How the values were obtained:
[1] = molecular target: T1, α-amylase from porcine pancreas (Sus scrofa, UniProt P00690); experiment: α-amylase enzyme activity assay, GalG2CNP conversion, UV/Vis detection of CNP at 405 nm; format: biochemical; details: for IC50: read-out: IC50 (Cheng−Prussoff, Equation (9)); for Kmapp / vmaxapp: Michaelis Menten fit
T1 construct: A saline suspension of α-amylase from porcine pancreas; purchased Sigma Aldrich (Steinheim, Germany) Lot #SLBN9170V (catalogue number not given); host or cells: porcine pancreas (tissue-derived)
T1 sequence (P00690 16-511): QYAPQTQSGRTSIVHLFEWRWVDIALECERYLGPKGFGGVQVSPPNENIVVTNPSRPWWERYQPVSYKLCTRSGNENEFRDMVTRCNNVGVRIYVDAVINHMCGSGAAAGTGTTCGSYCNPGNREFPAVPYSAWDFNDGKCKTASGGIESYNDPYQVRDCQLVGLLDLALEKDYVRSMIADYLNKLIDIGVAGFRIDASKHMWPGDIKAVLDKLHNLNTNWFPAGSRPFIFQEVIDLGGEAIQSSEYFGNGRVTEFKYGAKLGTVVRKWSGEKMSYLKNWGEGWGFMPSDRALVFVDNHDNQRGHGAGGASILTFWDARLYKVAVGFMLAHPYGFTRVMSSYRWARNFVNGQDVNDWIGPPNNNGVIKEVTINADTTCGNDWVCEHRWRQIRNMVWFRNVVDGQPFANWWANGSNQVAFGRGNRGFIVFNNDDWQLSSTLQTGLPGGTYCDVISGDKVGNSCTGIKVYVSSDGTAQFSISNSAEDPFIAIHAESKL
Description: The enzyme activity assay, […], was established by Homoki and co-workers and already used by the authors to evaluate the inhibitory strength of different phenolic structures. To enable the evaluation of the result obtained in the present study compared to the non-anthocyanin phenolics investigated previously, the assay conditions were identical. In short, to 12 different GalG2CNP concentrations ([S] = 0−2000 µM) in MES^+ buffer, inhibitor [I] and 50 µL enzyme solution (c = 1.51 units/~100 pM, on the basis of supplier information) were mixed in a microtiter plate (Greiner BioOne, Frickenhausen, Germany; transparent, F-bottom). For blanks, the enzyme solution was substituted with MES^+ buffer. The final volume per well was 250 µL. To quantify the reaction product, a linear calibration with eight different CNP concentrations in the range of 0−35 µM was performed for each plate. Dilutions of the anthocyanin stock solutions (0.1% HCl) were equilibrated at pH 6.1 for one hour. Final inhibitor concentrations were limited due to its strong absorption at 405 nm to 12.5, 25, and 50 µM. For each anthocyanin structure, the assay was conducted on two to three different days with freshly prepared stocks of substrate, enzyme, and inhibitor.
In addition to the Michaelis Menten constant (Km) and the maximal conversion rate (vmax) values (Table S1), inhibition constants (Kic, Kiu) were calculated by fitting the data by two approaches: (i) According to the mixed inhibition equation (Equation (4)) or competitive inhibition equation (Equation (5)), applying an optimal global fit containing data from all inhibitor concentrations including the control ([I] = 0 µM); and (ii) by an independent fit according to the Michaelis Menten equation (Equation (6)), providing the apparent values Km^app and Vmax^app (Table S2) for each inhibitor concentration, which were then used to calculate the inhibition constants (Equations (7) and (8)). (4) v0= vmax/Km/[S] · (1+[I]/Kic)+(1+[I]/Kiu), (5) v0=vmax/Km/[S] · ( 1+[I]/Kic)+1, (6) v0=vmax · [S]/Km+[S], (7) Kic=vmax^app/Km^app · [I]/vmax/Km−vmax^app/Km^app, (8) Kiu=vmax^app · [I]/vmax− vmax^app.
The IC50 values of the different anthocyanins were derived from the inhibition constants for different substrate concentrations by the Cheng−Prusoff equation (Equation (9)). (9) IC50=(Km+[S])/Km/Kic+[S]/Kiu.
• KM: Michaelis Menten constant (µM) • vmax: Maximal conversion rate of the uninhibited reaction (µM/min) • v0: Observed conversion rate at given substrate and inhibitor concentration (µM/min) • [S]: Substrate concentration • [I]: Inhibitor concentration • Kic: Inhibitor constant, reflecting the competitive inhibition in the equation (µM) • Kiu: Inhibitor constant, reflecting the uncompetitive inhibition in the equation (µM) • vmax^app: Calculated maximal conversion rate, when the Michaelis Menten equation is used on an inhibited curve (µM/min) • Km^app: Calculated Michaelis Menten constant, when the Michaelis Menten equation is used on an inhibited curve (µM) • IC50: Half maximal inhibitory concentration (inhibitor concentration needed to achieve 50% inhibition; it is dependent on the substrate concentration) (µM)
For data analyses and calculations, Origin 2018b (OriginLab, software extension Enzyme Kinetics) was used. The Levenberg−Marquardt algorithm procedure was chosen for iteration. All assays were performed in two independent replicates at different dates. Values are expressed in arithmetic means ± average deviation (AD). The statistical significance and differences between groups were analyzed by one-way analysis of variance (ANOVA), followed by Tukey’s test. Differences were considered significant when p < 0.05. Data were processed using Microsoft Excel® (2010).

[2] = molecular target: porcine pancreatic α-amylase; design: method as in doi:10.1016/j.jff.2015.11.042; details: cited from earlier work

SMILES: COc1cc(-c2[o+]c3cc(O)cc(O)c3cc2O[C@@H]2O[C@H](CO)[C@@H](O)[C@H](O)[C@H]2O)ccc1O [Peo-glc, peonidin-3-glucoside]
- IC50 ([1]; (i) Kic and Kiu by global fit, [S] 10 µM): 112 ± 40 µM
- IC50 ([1]; (i) Kic and Kiu by global fit, [S] 100 µM): 134 ± 46 µM
- IC50 ([1]; (i) Kic and Kiu by global fit, [S] 10^3 µM): 209 ± 65 µM
- IC50 ([1]; (i) Kic and Kiu by global fit, [S] 10^6 µM): 258 ± 78 µM
- Kic/Kiu ([1]; (i) global fit, Equation (4)): 0.42 ± 0.23 ^a
- Ki ([1]; (i) global fit, mixed inhibition Equation (4), read-out: Kic): 109 ± 39 µM
- Ki ([1]; (i) global fit, mixed inhibition Equation (4), read-out: Kiu): 258 ± 78 µM
- IC50 ([1]; (ii) Kic and Kiu by independent fit, [S] 10 µM): 121 ± 42 µM
- IC50 ([1]; (ii) Kic and Kiu by independent fit, [S] 100 µM): 142 ± 49 µM
- IC50 ([1]; (ii) Kic and Kiu by independent fit, [S] 10^3 µM): 212 ± 69 µM
- IC50 ([1]; (ii) Kic and Kiu by independent fit, [S] 10^6 µM): 254 ± 82 µM
- Ki ([1]; (ii) independent Michaelis Menten fit (Equation (6)), calculation by Equation (7), read-out: Kic): 118 ± 42 µM
- Ki ([1]; (ii) independent Michaelis Menten fit (Equation (6)), calculation by Equation (8), read-out: Kiu): 254 ± 82 µM
- Kic/Kiu ([1]; (ii) independent fit, Equations (7) and (8)): 0.43 ± 0.04 **^a
- Kmapp ([1]; inhibitor c 25 µM): 242 ± 8 µM
- vmaxapp ([1]; inhibitor c 25 µM): 0,74 ± 0,14 µM/min
- Kmapp ([1]; inhibitor c 50 µM): 256 ± 7 µM
- vmaxapp ([1]; inhibitor c 50 µM): 0,65 ± 0,05 µM/min
- Kmapp ([1]; inhibitor c 12,5 µM): 211 ± 15 µM
- vmaxapp ([1]; inhibitor c 12,5 µM): 0,77 ± 0,12 µM/min
- Ki ([1]; from apparent values, inhibitor c 25 µM, read-out: Kic): 107 ± 15 µM
- Ki ([1]; from apparent values, inhibitor c 25 µM, read-out: Kiu): 250 µM
- Ki ([1]; from apparent values, inhibitor c 50 µM, read-out: Kic): 112 ± 45 µM
- Ki ([1]; from apparent values, inhibitor c 50 µM, read-out: Kiu): 262 ± 92 µM
- Ki ([1]; from apparent values, inhibitor c 12,5 µM, read-out: Kic): 180 µM
- Ki ([1]; from apparent values, inhibitor c 12,5 µM, read-out: Kiu): 360 µM
- Ki ([1]; mean over inhibitor c 12,5, 25, 50 µM (Supplementary 2), read-out: Kic mean ± SD): 133 ± 40 µM
- Ki ([1]; mean over inhibitor c 12,5, 25, 50 µM (Supplementary 2), read-out: Kiu mean ± SD): 290 ± 61 µM
- IC50 [2]: 75 ± 7 µM
- inhibition type [2]: competitive inhibition type
